Experiments:
Assay type in all cases: in vivo
[1] = system: Italian ryegrass (Lolium multiflorum); assay: Test A preemergence, visual plant response rating; conditions: for Ryegrass, Italian plant response rating: 125 g ai/ha, preemergence, 0 to 100 scale, 0 no effect, 100 complete control; for Ryegrass, Italian plant response rating (0 to 100 scale): 500 g ai/ha Preemergence, approx. 10 days
Summary of the method: (§1)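 Ratings use a 0–100 visual scale (100 = complete control) against untreated controls, scored about 10 days after greenhouse treatment. Test chemicals were formulated in surfactant-containing non-phytotoxic solvent and applied either as soil spray after planting (preemergence) or onto one- to two-leaf, 2–10 cm plants (postemergence).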

[2] = system: barnyardgrass (Echinochloa crus-galli); assay: Test A preemergence, visual plant response rating; conditions: for Barnyardgrass plant response rating: 125 g ai/ha, preemergence, 0 to 100 scale, 0 no effect, 100 complete control; for Barnyardgrass plant response rating (0 to 100 scale): 500 g ai/ha Preemergence, approx. 10 days
Summary of the method: as §1

[3] = system: foxtail, giant (giant foxtail, Setaria faberii); assay: Test A preemergence, visual plant response rating; conditions: for Foxtail, Giant plant response rating: 125 g ai/ha, preemergence, 0 to 100 scale, 0 no effect, 100 complete control; for Foxtail, Giant plant response rating (0 to 100 scale): 500 g ai/ha Preemergence, approx. 10 days
Summary of the method: as §1

[4] = system: kochia (Kochia scoparia); assay: Test A preemergence, visual plant response rating; conditions: for Kochia plant response rating: 125 g ai/ha, preemergence, 0 to 100 scale, 0 no effect, 100 complete control; for Kochia plant response rating (0 to 100 scale): 500 g ai/ha Preemergence, approx. 10 days
Summary of the method: as §1

[5] = system: pigweed (Amaranthus retroflexus); assay: Test A preemergence, visual plant response rating; conditions: for Pigweed plant response rating: 125 g ai/ha, preemergence, 0 to 100 scale, 0 no effect, 100 complete control; for Pigweed plant response rating (0 to 100 scale): 500 g ai/ha Preemergence, approx. 10 days
Summary of the method: as §1

[6] = system: ragweed (common ragweed, Ambrosia elatior); assay: Test A preemergence, visual plant response rating; conditions: for Ragweed plant response rating: 125 g ai/ha, preemergence, 0 to 100 scale, 0 no effect, 100 complete control; for Ragweed plant response rating (0 to 100 scale): 500 g ai/ha Preemergence, approx. 10 days
Summary of the method: as §1

[7] = system: Italian ryegrass (Lolium multiflorum); assay: Test A postemergence, visual plant response rating; conditions: for Ryegrass, Italian plant response rating (0 to 100 scale): 500 g ai/ha, postemergence, 0 is no effect, 100 is complete control; for Ryegrass, Italian plant response rating: Postemergence, 125 g ai/ha, 0 to 100 scale (0 no effect, 100 complete control)
Summary of the method: as §1

[8] = system: barnyardgrass (Echinochloa crus-galli); assay: Test A postemergence, visual plant response rating; conditions: for Barnyardgrass plant response rating (0 to 100 scale): 500 g ai/ha, postemergence, 0 is no effect, 100 is complete control; for Barnyardgrass plant response rating: Postemergence, 125 g ai/ha, 0 to 100 scale (0 no effect, 100 complete control)
Summary of the method: as §1

[9] = system: blackgrass (Alopecurus myosuroides); assay: Test A postemergence, visual plant response rating; conditions: for Blackgrass plant response rating (0 to 100 scale): 500 g ai/ha, postemergence, 0 is no effect, 100 is complete control; for Blackgrass plant response rating: Postemergence, 125 g ai/ha, 0 to 100 scale (0 no effect, 100 complete control)
Summary of the method: as §1

[10] = system: corn (Zea mays); assay: Test A postemergence, visual plant response rating; conditions: for Corn plant response rating (0 to 100 scale): 500 g ai/ha, postemergence, 0 is no effect, 100 is complete control; for Corn plant response rating: Postemergence, 125 g ai/ha, 0 to 100 scale (0 no effect, 100 complete control)
Summary of the method: as §1

[11] = system: foxtail, giant (giant foxtail, Setaria faberii); assay: Test A postemergence, visual plant response rating; conditions: for Foxtail, Giant plant response rating (0 to 100 scale): 500 g ai/ha, postemergence, 0 is no effect, 100 is complete control; for Foxtail, Giant plant response rating: Postemergence, 125 g ai/ha, 0 to 100 scale (0 no effect, 100 complete control)
Summary of the method: as §1

[12] = system: galium (catchweed bedstraw, Galium aparine); assay: Test A postemergence, visual plant response rating; conditions: for Galium plant response rating (0 to 100 scale): 500 g ai/ha, postemergence, 0 is no effect, 100 is complete control; for Galium plant response rating: Postemergence, 125 g ai/ha, 0 to 100 scale (0 no effect, 100 complete control)
Summary of the method: as §1

[13] = system: kochia (Kochia scoparia); assay: Test A postemergence, visual plant response rating; conditions: for Kochia plant response rating (0 to 100 scale): 500 g ai/ha, postemergence, 0 is no effect, 100 is complete control; for Kochia plant response rating: Postemergence, 125 g ai/ha, 0 to 100 scale (0 no effect, 100 complete control)
Summary of the method: as §1

[14] = system: pigweed (Amaranthus retroflexus); assay: Test A postemergence, visual plant response rating; conditions: for Pigweed plant response rating (0 to 100 scale): 500 g ai/ha, postemergence, 0 is no effect, 100 is complete control; for Pigweed plant response rating: Postemergence, 125 g ai/ha, 0 to 100 scale (0 no effect, 100 complete control)
Summary of the method: as §1

[15] = system: ragweed (common ragweed, Ambrosia elatior); assay: Test A postemergence, visual plant response rating; conditions: for Ragweed plant response rating (0 to 100 scale): 500 g ai/ha, postemergence, 0 is no effect, 100 is complete control; for Ragweed plant response rating: Postemergence, 125 g ai/ha, 0 to 100 scale (0 no effect, 100 complete control)
Summary of the method: as §1

[16] = system: wheat (Triticum aestivum); assay: Test A postemergence, visual plant response rating; conditions: for Wheat plant response rating (0 to 100 scale): 500 g ai/ha, postemergence, 0 is no effect, 100 is complete control; for Wheat plant response rating: Postemergence, 125 g ai/ha, 0 to 100 scale (0 no effect, 100 complete control)
Summary of the method: as §1

[17] = system: barnyardgrass (Echinochloa crus-galli); assay: Test B flooded paddy test, visual plant response rating; conditions: 250 g ai/ha, Flood, applied to paddy water, 2-leaf stage, evaluated after 13 to 15 days
Summary of the method: (§2)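 At the two-leaf stage, seedlings received compound applied to paddy water flooded 3 cm above soil, a level sustained until assessment. Greenhouse incubation lasted 13 to 15 days before visual comparison with control plants.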

[18] = system: ducksalad (Heteranhera limosa); assay: as above; conditions: 250 g ai/ha, Flood, applied to paddy water, 2-leaf stage, evaluated after 13 to 15 days
Summary of the method: as §2

[19] = system: rice (Oryza sativa); assay: as above; conditions: 250 g ai/ha, Flood, applied to paddy water, 2-leaf stage, evaluated after 13 to 15 days
Summary of the method: as §2

[20] = system: sedge, umbrella (small-flower umbrella sedge, Cyperus difformis); assay: as above; conditions: 250 g ai/ha, Flood, applied to paddy water, 2-leaf stage, evaluated after 13 to 15 days
Summary of the method: as §2

Row | SMILES | Ryegrass, Italian plant response rating [1] | Ryegrass, Italian plant response rating (0 to 100 scale) [1] | Barnyardgrass plant response rating [2] | Barnyardgrass plant response rating (0 to 100 scale) [2] | Foxtail, Giant plant response rating [3] | Foxtail, Giant plant response rating (0 to 100 scale) [3] | Kochia plant response rating [4] | Kochia plant response rating (0 to 100 scale) [4] | Pigweed plant response rating [5] | Pigweed plant response rating (0 to 100 scale) [5] | Ragweed plant response rating [6] | Ragweed plant response rating (0 to 100 scale) [6] | Ryegrass, Italian plant response rating (0 to 100 scale) [7] | Ryegrass, Italian plant response rating [7] | Barnyardgrass plant response rating (0 to 100 scale) [8] | Barnyardgrass plant response rating [8] | Blackgrass plant response rating (0 to 100 scale) [9] | Blackgrass plant response rating [9] | Corn plant response rating (0 to 100 scale) [10] | Corn plant response rating [10] | also measured
1 | CCc1cccc(C(=NOC)c2c(O)c(C)nn(C)c2=O)c1 [Compound 36] | 30 | 50 | 10 | 20 | 0 | 50 | 10 | 50 | 10 | 30 | 10 | 70 | 50 | 30 | 0 | 0 | 20 | 10 | 0 | 20 | Foxtail, Giant plant response rating (0 to 100 scale) [11]: 10; Foxtail, Giant plant response rating [11]: 0; Galium plant response rating (0 to 100 scale) [12]: 70; Galium plant response rating [12]: 50; Kochia plant response rating (0 to 100 scale) [13]: 70; Kochia plant response rating [13]: 60; Pigweed plant response rating (0 to 100 scale) [14]: 70; Pigweed plant response rating [14]: 20; Ragweed plant response rating (0 to 100 scale) [15]: 80; Ragweed plant response rating [15]: 70; Wheat plant response rating (0 to 100 scale) [16]: 0; Wheat plant response rating [16]: 0; Plant response rating, Barnyardgrass (0 to 100 scale, 0 is no effect, 100 is complete control) [17]: 0; Plant response rating, Ducksalad (0 to 100 scale, 0 is no effect, 100 is complete control) [18]: 0; Plant response rating, Rice (0 to 100 scale, 0 is no effect, 100 is complete control) [19]: 0; Plant response rating, Sedge, Umbrella (0 to 100 scale, 0 is no effect, 100 is complete control) [20]: 0
2 | CCc1ccccc1C(=NOC)c1c(O)c(C)nn(C)c1=O [Compound 37] | 40 | 60 | 0 | 20 | 30 | 80 | 0 | 80 | 40 | 90 | 10 | 80 | 90 | 80 | 20 | 10 | 80 | 60 | 30 | 0 | Foxtail, Giant plant response rating (0 to 100 scale) [11]: 70; Foxtail, Giant plant response rating [11]: 30; Galium plant response rating (0 to 100 scale) [12]: 90; Galium plant response rating [12]: 80; Kochia plant response rating (0 to 100 scale) [13]: 80; Kochia plant response rating [13]: 60; Pigweed plant response rating (0 to 100 scale) [14]: 90; Pigweed plant response rating [14]: 70; Ragweed plant response rating (0 to 100 scale) [15]: 80; Ragweed plant response rating [15]: 60; Wheat plant response rating (0 to 100 scale) [16]: 10; Wheat plant response rating [16]: 0; Plant response rating, Barnyardgrass (0 to 100 scale, 0 is no effect, 100 is complete control) [17]: 0; Plant response rating, Ducksalad (0 to 100 scale, 0 is no effect, 100 is complete control) [18]: 0; Plant response rating, Rice (0 to 100 scale, 0 is no effect, 100 is complete control) [19]: 0; Plant response rating, Sedge, Umbrella (0 to 100 scale, 0 is no effect, 100 is complete control) [20]: 0
3 | CO/N=C(\c1cc(C)ccc1Cl)c1c(O)c(C)nn(C)c1=O [Compound 38] | 0 | 0 | 0 | 0 | 0 | 10 | 0 | 20 | 0 | 0 | 30 | 30 | 20 | 10 | 20 | 20 | 30 | 10 | 20 | 10 | Foxtail, Giant plant response rating (0 to 100 scale) [11]: 30; Foxtail, Giant plant response rating [11]: 10; Galium plant response rating (0 to 100 scale) [12]: 90; Galium plant response rating [12]: 80; Kochia plant response rating (0 to 100 scale) [13]: 50; Kochia plant response rating [13]: 10; Pigweed plant response rating (0 to 100 scale) [14]: 60; Pigweed plant response rating [14]: 20; Ragweed plant response rating (0 to 100 scale) [15]: 70; Ragweed plant response rating [15]: 60; Wheat plant response rating (0 to 100 scale) [16]: 0; Wheat plant response rating [16]: 0; Plant response rating, Barnyardgrass (0 to 100 scale, 0 is no effect, 100 is complete control) [17]: 0; Plant response rating, Ducksalad (0 to 100 scale, 0 is no effect, 100 is complete control) [18]: 0; Plant response rating, Rice (0 to 100 scale, 0 is no effect, 100 is complete control) [19]: 0; Plant response rating, Sedge, Umbrella (0 to 100 scale, 0 is no effect, 100 is complete control) [20]: 0
